According to the supplement of paper PMC10307832:

Columns and labels:
Assay in all cases: relative viability (nuclei count vs DMSO), 5 days (fraction); higher = more cells survive
Selumetinib + Pictilisib = compound: Cn1cnc2c(F)c(Nc3ccc(Br)cc3Cl)c(C(=O)NOCCO)cc21 [Selumetinib] + CS(=O)(=O)N1CCN(Cc2cc3nc(-c4cccc5[nH]ncc45)nc(N4CCOCC4)c3s2)CC1 [Pictilisib] (partner 1 µM)
Method in brief: (§1)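 The day after seeding in 1536-well plates, lung cancer cell lines were treated by pin tool with a single drug, or with a fixed anchor-drug dose together with five library-drug doses (not always all listed) in √10 steps. After 5 days, a combined fix-and-stain solution (final 0.05% Triton X-100, 1% formaldehyde, 1 ug/ml Hoechst) was added. Nuclei counted on 4× images gave relative viability as treated counts over vehicle counts, reported as the median of duplicate plates.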

Venetoclax + Olaparib = compound: CC1(C)CCC(CN2CCN(c3ccc(C(=O)NS(=O)(=O)c4ccc(NCC5CCOCC5)c([N+](=O)[O-])c4)c(Oc4cnc5[nH]ccc5c4)c3)CC2)=C(c2ccc(Cl)cc2)C1 [Venetoclax] + O=C(c1cc(Cc2n[nH]c(=O)c3ccccc23)ccc1F)N1CCN(C(=O)C2CC2)CC1 [Olaparib] (partner 8 µM)
Method in brief: as §1

Venetoclax + Luminespib = compound: CC1(C)CCC(CN2CCN(c3ccc(C(=O)NS(=O)(=O)c4ccc(NCC5CCOCC5)c([N+](=O)[O-])c4)c(Oc4cnc5[nH]ccc5c4)c3)CC2)=C(c2ccc(Cl)cc2)C1 [Venetoclax] + CCNC(=O)c1noc(-c2cc(C(C)C)c(O)cc2O)c1-c1ccc(CN2CCOCC2)cc1 [Luminespib] (partner 0.01 µM)
Method in brief: as §1

Selumetinib + AZD7762 = compound: Cn1cnc2c(F)c(Nc3ccc(Br)cc3Cl)c(C(=O)NOCCO)cc21 [Selumetinib] + NC(=O)Nc1cc(-c2cccc(F)c2)sc1C(=O)N[C@H]1CCCNC1 [AZD7762] (partner 0.2 µM)
Method in brief: as §1

Row | Cell Line | relative viability (Selumetinib + Pictilisib; first compound 0.02 µM) | relative viability (Selumetinib + Pictilisib; first compound 0.06325 µM) | relative viability (Selumetinib + Pictilisib; first compound 0.2 µM) | relative viability (Selumetinib + Pictilisib; first compound 0.6325 µM) | relative viability (Venetoclax + Olaparib; first compound 0.01 µM) | relative viability (Venetoclax + Olaparib; first compound 0.03162 µM) | relative viability (Venetoclax + Olaparib; first compound 0.1 µM) | relative viability (Venetoclax + Olaparib; first compound 0.3162 µM) | relative viability (Venetoclax + Olaparib; first compound 1 µM) | relative viability (Venetoclax + Luminespib; first compound 0.01 µM) | relative viability (Venetoclax + Luminespib; first compound 0.03162 µM) | relative viability (Venetoclax + Luminespib; first compound 0.1 µM) | relative viability (Venetoclax + Luminespib; first compound 0.3162 µM) | relative viability (Venetoclax + Luminespib; first compound 1 µM) | relative viability (Selumetinib + AZD7762; first compound 0.02 µM) | relative viability (Selumetinib + AZD7762; first compound 0.06325 µM) | relative viability (Selumetinib + AZD7762; first compound 0.2 µM) | relative viability (Selumetinib + AZD7762; first compound 0.6325 µM)
1 | NCI-H1437 | 0.237 | 0.178 | 0.157 | 0.149 | 0.607 | 0.616 | 0.624 | 0.615 | 0.601 | 1.07 | 1.19 | 1.13 | 1.15 | 1.07 | 1.03 | 0.941 | 0.834 | 0.603
2 | NCI-H1666 | 0.346 | 0.22 | 0.264 | 0.239 | 0.77 | 0.741 | 0.711 | 0.759 | 0.62 | 0.894 | 1.08 | 0.953 | 0.973 | 0.996 | 0.853 | 0.758 | 0.759 | 0.732
3 | NCI-H2085 | 0.449 | 0.374 | 0.356 | 0.365 | 0.676 | 0.758 | 0.744 | 0.755 | 0.75 | 0.339 | 0.427 | 0.437 | 0.37 | 0.438 | 0.914 | 0.906 | 0.864 | 0.722
4 | LXF-289 | 0.735 | 0.615 | 0.537 | 0.552 | 1.07 | 1.09 | 1.1 | 0.993 | 0.94 | 0.787 | 0.7 | 0.61 | 0.663 | 0.472 | 0.958 | 0.887 | 0.829 | 0.85
5 | NCI-H322M | 0.428 | 0.415 | 0.446 | 0.373 | 0.738 | 0.799 | 0.76 | 0.764 | 0.785 | 1 | 0.842 | 0.814 | 0.944 | 0.941 | 0.453 | 0.443 | 0.45 | 0.527
6 | LU99A | 0.34 | 0.317 | 0.412 | 0.351 | 0.301 | 0.287 | 0.255 | 0.283 | 0.254 | 0.232 | 0.256 | 0.262 | 0.227 | 0.37 | 0.461 | 0.367 | 0.397 | 0.342
7 | NCI-H650 | 1 | 0.912 | 0.887 | 0.993 | 0.356 | 0.425 | 0.375 | 0.383 | 0.365 | 0.805 | 0.837 | 0.751 | 0.954 | 0.735 | 1.37 | 1.14 | 1.06 | 1.15
8 | PC-14 | 0.723 | 0.551 | 0.548 | 0.519 | 0.256 | 0.297 | 0.245 | 0.302 | 0.226 | 0.175 | 0.122 | 0.15 | 0.153 | 0.154 | 0.364 | 0.397 | 0.276 | 0.313
9 | HARA | 0.285 | 0.391 | 0.31 | 0.15 | 0.803 | 0.993 | – | 0.814 | 0.822 | 0.814 | 0.657 | 0.751 | 0.913 | 0.823 | 0.38 | 0.34 | 0.341 | 0.152
10 | HOP-62 | 0.713 | 0.407 | 0.26 | 0.261 | 0.318 | 0.622 | 0.359 | 0.203 | 0.394 | 0.945 | 0.892 | 0.926 | 0.8 | 0.842 | 0.591 | 0.542 | 0.5 | 0.241
11 | LK-2 | 0.761 | 0.547 | 0.565 | 0.544 | 0.934 | 0.98 | 0.848 | 0.619 | 0.716 | 0.186 | 0.204 | 0.185 | 0.157 | 0.182 | 0.474 | 0.425 | 0.502 | 0.243
12 | HCC-44 | 0.562 | 0.525 | 0.379 | 0.337 | 1.05 | 1.01 | 0.919 | 0.971 | 0.983 | 1.05 | 0.946 | 1.13 | 1.07 | 1 | 1.07 | 1.08 | 1.02 | 1.16
13 | BEN | 0.632 | 0.545 | 0.461 | 0.534 | 1.07 | 1.21 | 0.97 | 1.1 | 1.02 | 0.343 | 0.48 | 0.401 | 0.192 | 0.513 | 0.587 | 0.624 | 0.634 | 0.736
14 | NCI-H2405 | 0.382 | 0.303 | 0.269 | 0.26 | 0.833 | 0.881 | 0.915 | 0.929 | 0.78 | 0.747 | 0.754 | 0.85 | 0.712 | 0.639 | 0.729 | 0.492 | 0.561 | 0.466
15 | NCI-H1395 | 0.598 | 0.577 | 0.569 | 0.639 | 0.451 | 0.484 | 0.447 | 0.473 | 0.427 | 0.661 | 0.805 | 0.517 | 0.793 | 0.658 | 0.389 | 0.38 | 0.391 | 0.355
